The results in this text go back to US11685747B2, “Compounds that inhibit MCL-1 protein” (AMGEN INC., priority 2014, dated 2023).

By IC50 is commonly meant the concentration that gives 50% inhibition.

Test [1] has as its target T1, recombinant human Mcl-1 (Homo sapiens, UniProt Q07820).
T1 construct: C-terminally 6×His tagged Mcl-1 containing residues 171-327; made in house
Description: Cell free Mcl-1:Bim affinity assay (Mcl-1 HTRF, TR-FRET). The note with it: inhibition of Mcl-1/Bim interaction. Type of test: binding. Here is the method:
Cell Free Mcl-1:Bim Affinity Assay (Mcl-1 HTRF)
The inhibition of the Mcl-1/Bim interaction was measured using a time-resolved fluorescence resonance energy transfer (TR-FRET) assay. […] A biotinylated peptide derived from human Bim (residues 51-76) was purchased from CPC Scientific (San Jose, Calif.). The TR-FRET assay was conducted in a 384-well white OptiPlate™ (PerkinElmer, Waltham, Mass.) in a total volume of 40 μL. […] The reaction plates were further incubated overnight and then were read on an Envision® multimode reader (PerkinElmer). […] The IC50 values of test compounds were determined from duplicate data by analyzing competition curves using a four-parameter sigmoidal model in GraphPad Prism (GraphPad Software, San Diego, Calif.) or in Genedata Screener® (Genedata, Basel, Switzerland).
For orientation: TR-FRET usually uses a lanthanide donor and a delayed reading to cut background.

In test [2] the target is T2, Mcl-1/Bak protein-protein interactions (Homo sapiens, UniProt Q07820).
T2 construct: expressed in transfected cells; host or cells: HEK 293 M cells, transient transfection
Description: Cell-based split luciferase complementation assay. As to conditions: HEK 293 M cells, serum-free, 4 h. The procedure: Cell-Based Assay (Split Luciferase)
A split luciferase complementation assay was developed to determine the inhibition of Mcl-1/Bak protein-protein interactions in cells. […] Transient transfection was performed using Lipofectamine® LTX/Plus™ reagent (Life Technologies, Grand Island, N.Y.). 24 h after transfection, cells were collected using non-enzyme based cell dissociation buffer StemPro® Accutase® (Life Technologies), and resuspended in serum-free Opti-MEM® (Life Technologies). Cells were then seeded into assay plates with serially diluted test compounds in 0.3% DMSO at density of a 5000 cells/well. Cells were then incubated for 4 h at 37° C. in a cell culture incubator supplement with 5% CO2. Test plates were equilibrated to room temperate for 30 min before addition of 30 μL Steady-Glo® Luciferase assay reagent (Promega, Madison, Wis.) into each test well. Luminescence was determined using an EnVision® Multilabel plate reader 25 min after the addition of detection reagent. IC50 values were then calculated with Xlfit using a logistical 4-parameter fit model in GraphPad Prism (GraphPad Software, San Diego, Calif.) or in Genedata Screener® (Genedata, Basel, Switzerland).

Test [3] relates to OPM-2. Description: Cell viability assay (OPM-2 10 FBS, CellTiter-Glo). The note with it: OPM-2 cells. The class given is cell-based, human. Here is the method: Cell Viability Assay (OPM-2 10 FBS)
Cells were seeded into 384-well plates at 3000 cells/well density in complete growth medium containing 10% FBS, and incubated for 16 h with serially diluted test compounds in a 37° C. incubator with 5% CO2. Cell viability was tested using CellTiter-Glo® assay (Promega, Madison, Wis.) according to the manufacturer recommendations. Luminescence was determined using an EnVision® Multilabel plate reader 25 min after the addition of detection reagent. IC50 values were then calculated with Xlfit using a logistical 4-parameter fit model in GraphPad Prism (GraphPad Software, San Diego, Calif.) or in Genedata Screener® (Genedata, Basel, Switzerland).

T2 sequence (Q07820 whole entry): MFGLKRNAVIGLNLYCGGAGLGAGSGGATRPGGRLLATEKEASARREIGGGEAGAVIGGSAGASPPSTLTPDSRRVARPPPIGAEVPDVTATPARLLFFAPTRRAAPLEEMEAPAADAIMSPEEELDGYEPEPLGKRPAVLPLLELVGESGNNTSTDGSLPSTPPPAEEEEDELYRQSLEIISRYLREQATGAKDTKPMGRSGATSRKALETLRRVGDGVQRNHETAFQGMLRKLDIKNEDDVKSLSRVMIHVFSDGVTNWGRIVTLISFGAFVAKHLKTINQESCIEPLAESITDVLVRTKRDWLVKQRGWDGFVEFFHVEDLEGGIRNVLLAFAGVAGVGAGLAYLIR
T1 sequence (Q07820 171-327): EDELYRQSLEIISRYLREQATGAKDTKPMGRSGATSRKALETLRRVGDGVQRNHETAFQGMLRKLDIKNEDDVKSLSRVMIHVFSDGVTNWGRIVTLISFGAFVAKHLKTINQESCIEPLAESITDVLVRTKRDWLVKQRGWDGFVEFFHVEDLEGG

For `C[C@H]1C/C=C/[C@H](O)[C@@H]2CC[C@H]2CN2C[C@@]3(CCCc4cc(Cl)ccc43)COc3ccc(cc32)C(=O)NS(=O)(=O)[C@@H]1C1CC1` (single isomer, unassigned) [Example 44], the IC50 in test [1] came out at 0.297 nM; in test [2] it was 21.5 nM; in test [3] (16 h), 208 nM.
The like results for `CC(C)[C@@H]1[C@H](C)C/C=C/[C@H](O)[C@@H]2CC[C@H]2CN2C[C@@]3(CCCc4cc(Cl)ccc43)COc3ccc(cc32)C(=O)NS1(=O)=O` (single isomer, unassigned) [Example 49] were, in that order, 0.317 nM, 46.2 nM and 184 nM.
For the molecule `O=C1NS(=O)(=O)CCC/C=C/[C@H](O)[C@@H]2CC[C@H]2CN2C[C@@]3(CCCc4cc(Cl)ccc43)COc3ccc1cc32` [Example 8, (1S,3′R,6′R,7′S,8′E)-6-Chloro-7′-Hydroxy-3,4-Dihydro-2H,15′H-Spiro[Naphthalene-1,22′-[20]Oxa[13]Thia[1,14]Diazatetracyclo[14.7.2.0^3,6.0^19,24]Pentacos A[8,16,18,24]Tetraen]-15′-One 13′,13′-Dioxide], the IC50 was 0.977 nM in test [1]; 211 nM in test [2]; 1680 nM in test [3] (Homo sapiens, 16 h).
As for `CC(C)C[C@@H]1[C@@H](C)C/C=C/[C@H](O)[C@@H]2CC[C@H]2CN2C[C@@]3(CCCc4cc(Cl)ccc43)COc3ccc(cc32)C(=O)NS1(=O)=O` (single isomer, unassigned) [Example 65], the IC50 in test [1] is 5.3 nM; in test [2], 376 nM; in test [3] (16 h) it was 3280 nM.
For `C[C@H]1C/C=C/[C@H](O)[C@@H]2CC[C@H]2CN2C[C@@]3(CCCc4cc(Cl)ccc43)COc3ccc(cc32)C(=O)NS(=O)(=O)[C@@H]1CC1CC1` (single isomer, unassigned) [Example 60], in that order: 0.514 nM, 23.4 nM and 158 nM.
The like results for `CC(C)[C@@H]1[C@H](C)C/C=C/[C@H](O)[C@@H]2CC[C@H]2CN2C[C@@]3(CCCc4cc(Cl)ccc43)COc3ccc(cc32)C(=O)NS1(=O)=O` (single isomer, unassigned) [Example 50] were, in that order, 1.01 nM, 232 nM and 1320 nM.
As to `CC[C@@H]1[C@@H](C)C/C=C/[C@H](O)[C@@H]2CC[C@H]2CN2C[C@@]3(CCCc4cc(Cl)ccc43)COc3ccc(cc32)C(=O)NS1(=O)=O` (single isomer, unassigned) [Example 24], the IC50 in test [1] is 0.153 nM; in test [2] it was 20.1 nM; in test [3] (Homo sapiens, OPM-2, 16 h), 125 nM.
For the molecule `CCC[C@@H]1[C@@H](C)C/C=C/[C@H](O)[C@@H]2CC[C@H]2CN2C[C@@]3(CCCc4cc(Cl)ccc43)COc3ccc(cc32)C(=O)NS1(=O)=O` (single isomer, unassigned) [Example 68], the results for the IC50 in test [1], in test [2] and in test [3] (16 h) were 0.501 nM, 16.4 nM and 179 nM, respectively.
Take `CO[C@H]1/C=C/CC[C@@H](C)S(=O)(=O)NC(=O)c2ccc3c(c2)N(C[C@@H]2CC[C@H]21)C[C@@]1(CCCc2cc(Cl)ccc21)CO3` [Example 13, (1S,3′R,6′R,7′S,8′E,12′R)-6-Chloro-7′-Methoxy-12′-Methyl-3,4-Dihydro-2H,15′H-Spiro[Naphthalene-1,22′-[20]Oxa[13]Thia[1,14]Diazatetracyclo[14.7.2.0^3,6.0^19,24]Pentacos A[8,16,18,24]Tetraen]-15′-One 13′,13′-Dioxide]: the IC50 was 0.441 nM in test [1]; 34.1 nM in test [2]; 353 nM in test [3] (Homo sapiens, OPM-2, 16 h).
Turning to `CCC[C@@H]1[C@@H](C)C/C=C/[C@H](O)[C@@H]2CC[C@H]2CN2C[C@@]3(CCCc4cc(Cl)ccc43)COc3ccc(cc32)C(=O)NS1(=O)=O` (single isomer, unassigned) [Example 69], the IC50 was determined as 8.66 nM in test [1], 425 nM in test [2] and 2710 nM in test [3] (16 h).
Take `CC[C@@H]1C/C=C/[C@H](O)[C@@H]2CC[C@H]2CN2C[C@@]3(CCCc4cc(Cl)ccc43)COc3ccc(cc32)C(=O)NS(=O)(=O)C1` (single isomer, unassigned) [Example 33]: the IC50 in test [1] is 7.02 nM; in test [2], 872 nM; in test [3] (Homo sapiens, OPM-2, 16 h), 14900 nM.
On to `C[C@H]1C/C=C/[C@H](O)[C@@H]2CC[C@H]2CN2C[C@@]3(CCCc4cc(Cl)ccc43)COc3ccc(cc32)C(=O)NS(=O)(=O)[C@@H]1C1CC1` (single isomer, unassigned) [Example 45], for which the IC50 in test [1] was 5.5 nM; in test [2], 455 nM; in test [3] (16 h), 20000 nM.
Take `CO[C@H]1/C=C/C[C@H](C)[C@@H](C2CC2)S(=O)(=O)NC(=O)c2ccc3c(c2)N(C[C@@H]2CC[C@H]21)C[C@@]1(CCCc2cc(Cl)ccc21)CO3` [Example 48, (1S,3′R,6′R,7′S,8′E,11′S,12′S)-6-Chloro-12′-Cyclopropyl-7′-Methoxy-11′-Methyl-3,4-Dihydro-2H,15′H-Spiro [Naphthalene-1,22′-[20]Oxa[13]Thia[1,14]Diazatetracyclo[14.7.2.0^3,6.0^19,24]Pentacosa[8,16,18,24]Tetraen]-15′-One 13′,13′-Dioxide]: the IC50 in test [1] came to 3.89 nM; in test [2] it was 477 nM; in test [3] (Homo sapiens, OPM-2, 16 h) it was 5580 nM.
As for `CC(C)C[C@@H]1[C@@H](C)C/C=C/[C@H](O)[C@@H]2CC[C@H]2CN2C[C@@]3(CCCc4cc(Cl)ccc43)COc3ccc(cc32)C(=O)NS1(=O)=O` (single isomer, unassigned) [Example 67], the IC50 in test [1] was 1.08 nM; in test [2] it was 84.8 nM; in test [3] (16 h), 600 nM.
The like results for `COCCO[C@H]1/C=C/C[C@H](C)CS(=O)(=O)NC(=O)c2ccc3c(c2)N(C[C@@H]2CC[C@H]21)C[C@@]1(CCCc2cc(Cl)ccc21)CO3` (single isomer, unassigned) [Example 78] were, in that order, 2.67 nM, 420 nM and 2740 nM.
`COCCO[C@H]1/C=C/CC[C@@H](C)S(=O)(=O)NC(=O)c2ccc3c(c2)N(C[C@@H]2CC[C@H]21)C[C@@]1(CCCc2cc(Cl)ccc21)CO3` [Example 76, (1S,3′R,6′R,7′S,8′E,12′R)-6-Chloro-7′-(2-Methoxyethoxy)-12′-Methyl-3,4-Dihydro-2H,15′H-Spiro[Naphthalene-1,22′-[20]Oxa[13]Thia[1,14]Diazatetracyclo[14.7.2.0^3,6.0^19,24]Pentacos A[8,16,18,24]Tetraen]-15′-One 13′,13′-Dioxide]: the IC50 in test [1] is 1.12 nM; in test [2] it was 77.3 nM; in test [3] (Homo sapiens, OPM-2, 16 h), 668 nM.
In the case of `CC[C@H]1C/C=C/[C@H](O)[C@@H]2CC[C@H]2CN2C[C@@]3(CCCc4cc(Cl)ccc43)COc3ccc(cc32)C(=O)NS(=O)(=O)C1` (single isomer, unassigned) [Example 34], the IC50 in test [1] worked out at 0.437 nM; in test [2], 37.7 nM; in test [3] (Homo sapiens, OPM-2, 16 h), 253 nM.
For `CCCCO[C@H]1/C=C/C[C@H](C)[C@@H](C)S(=O)(=O)NC(=O)c2ccc3c(c2)N(C[C@@H]2CC[C@H]21)C[C@@]1(CCCc2cc(Cl)ccc21)CO3` [Example 73, (1S,3′R,6′R,7′S,8′E,11′S,12′R)-7′-Butoxy-6-Chloro-11′,12′-Dimethyl-3,4-Dihydro-2H,15′H-Spiro[Naphthalene-1,22′ [20]Oxa[13]Thia[1,14]Diazatetracyclo[14.7.2.0^3,6.0^19,24]Pentacos A[8,16,18,24]Tetraen]-15′-One 13′,13′-Dioxide], in that order: 0.367 nM, 34.4 nM and 174 nM.
Regarding `C[C@H]1C/C=C/[C@H](O)[C@@H]2CC[C@H]2CN2C[C@@]3(CCCc4cc(Cl)ccc43)COc3ccc(cc32)C(=O)NS(=O)(=O)C1` (single isomer, unassigned) [Example 29], the IC50 came to 9.44 nM in test [1], 458 nM in test [2] and 5580 nM in test [3] (16 h).
